Tests used:
Estrogen receptor [1] = target: T1, Estrogen receptor (Homo sapiens, UniProt P03372)
T1 sequence (P03372 whole entry): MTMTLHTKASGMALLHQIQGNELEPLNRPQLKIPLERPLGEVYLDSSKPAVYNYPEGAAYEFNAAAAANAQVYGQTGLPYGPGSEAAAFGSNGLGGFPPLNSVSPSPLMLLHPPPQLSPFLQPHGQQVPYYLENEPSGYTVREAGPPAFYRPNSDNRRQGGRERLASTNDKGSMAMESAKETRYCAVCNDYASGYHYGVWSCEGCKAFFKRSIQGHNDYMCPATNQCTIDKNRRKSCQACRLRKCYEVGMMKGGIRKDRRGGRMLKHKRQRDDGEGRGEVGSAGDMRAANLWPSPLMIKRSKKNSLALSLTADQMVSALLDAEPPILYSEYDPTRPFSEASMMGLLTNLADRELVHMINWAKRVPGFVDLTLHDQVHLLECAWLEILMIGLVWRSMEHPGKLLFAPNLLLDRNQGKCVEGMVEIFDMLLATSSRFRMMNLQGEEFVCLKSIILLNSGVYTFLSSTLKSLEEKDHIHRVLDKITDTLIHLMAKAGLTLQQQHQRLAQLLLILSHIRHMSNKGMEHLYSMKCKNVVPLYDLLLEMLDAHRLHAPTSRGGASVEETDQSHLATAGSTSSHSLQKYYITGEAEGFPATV
Description: Antagonist activity at FLAG-tagged ERalpha (unknown origin) expressed in HEK293 cells assessed as reduction in E2-induced ER-alpha-mediated transcriptional activity by luciferase reporter gene assay

Estrogen receptor [2] = target: T1, Estrogen receptor; remark: listed apart in the source
Description: (§1) Selective estrogen receptor down-regulator activity at FLAG-tagged ERalpha (unknown origin) expressed in HEK293 cells assessed as induction of ERalpha degradation by luciferase reporter gene assay

Estrogen receptor [3] = target: T1, Estrogen receptor; remark: listed apart in the source
Description: Binding affinity to GST-tagged human ER alpha ligand-binding domain by TR-FRET assay

Estrogen receptor [4] = target: T1, Estrogen receptor; experiment: Agonist activity at FLAG-tagged ERalpha (unknown origin) expressed in HEK293 cells assessed as induction of ER-alpha-mediated transcriptional activity by luciferase reporter gene assay; assay type: cell-based
Estrogen receptor [5] = target: T1, Estrogen receptor; settings: hek293
Description: as §1

IC50 (Estrogen receptor [1]) [nM]	EC50 (Estrogen receptor [2]) [nM]	IC50 (Estrogen receptor [3]) [nM]	EC50 (Estrogen receptor [4]) [nM]	EC50 (Estrogen receptor [5])	Structure (SMILES)
> 10000	> 10000	790	> 10000		Cc1cc(Cc2ccc(O)c(C)c2)ccc1O
	28	1.4			CCC(CC)(c1ccc(O)c(C)c1)c1ccc(O)c(C)c1
	10	1.3 to 3.2			CCCC(CCC)(c1ccc(O)c(C)c1)c1ccc(O)c(C)c1
	88	26			CCCCC(CCCC)(c1ccc(O)c(C)c1)c1ccc(O)c(C)c1
	729	280			CCc1cc(C(CC)(CC)c2ccc(O)c(CC)c2)ccc1O
213	80	77	20		CCCC(CCC)(c1ccc(O)c(C)c1)c1ccc(N(C)C)c(C)c1
207	545	7.5			CCCC(CCC)(c1ccc(O)c(C)c1)c1ccc(NC)c(C)c1
94	204	99			CCCC(CCC)(c1ccc(O)c(C)c1)c1ccc(OCC(=O)N(C)C)c(C)c1
8.1	9	1.7	1.3		CCCC(CCC)(c1ccc(N)c(C)c1)c1ccc(O)c(C)c1
31	104	43			CCCC(CCC)(c1ccc(O)c(C)c1)c1ccc(OCC(=O)NC)c(C)c1
213	> 10000	354			CCCC(CCC)(c1ccc(O)c(C)c1)c1ccc(NC(C)=O)c(C)c1
522	437	37			CCCC(CCC)(c1ccc(O)c(C)c1)c1ccc(/C=C/C(=O)O)c(C)c1

Further lines, the compound ahead of its results:

Structure (SMILES)	IC50 (Estrogen receptor [1]) [nM]	EC50 (Estrogen receptor [2]) [nM]	IC50 (Estrogen receptor [3]) [nM]	EC50 (Estrogen receptor [4]) [nM]	EC50 (Estrogen receptor [5])
Oc1ccc(Cc2ccc(O)cc2)cc1	> 10000	> 10000	1430		
CCC(=C(c1ccc(O)cc1)c1ccc(O)cc1)c1ccccc1	3.3	1	0.06		
CCC(CC)(c1ccc(O)cc1)c1ccc(O)cc1		181	24		
CCCC(CCC)(c1ccc(O)cc1)c1ccc(O)cc1		65	5.9		
CCCCC(CCCC)(c1ccc(O)cc1)c1ccc(O)cc1		606	100		
CCCC(CCC)(c1ccc(O)c(CC)c1)c1ccc(O)c(CC)c1		> 10000	1280		
CCCC(CCC)(c1ccc(O)c(C)c1)c1ccc(OCCN(C)C)c(C)c1	36		52		Not Active
CCCC(CCC)(c1ccc(O)c(C)c1)c1ccc(OCC(=O)OC(C)C)c(C)c1	99	116	90		
CCCC(CCC)(c1ccc(O)c(C)c1)c1ccc(OCCC(C)C)c(C)c1	1200	427	160		
CCCC(CCC)(c1ccc(O)c(C)c1)c1ccc(OCC(=O)OCC)c(C)c1	44	93	22		
CCCC(CCC)(c1ccc(O)c(C)c1)c1ccc(/C=C/C(=O)OCC)c(C)c1	561	193	303		

From ChEMBL document CHEMBL4392845, “Structure-activity relationship study of estrogen receptor down-regulators with a diphenylmethane skeleton” (Bioorg Med Chem, 2019)
